Experiments:
[1] = target: T1, Cdk10/CycQ (Homo sapiens, UniProt Q15131); experiment: Radiometric kinase assay, inhibition of Cdk10/CycQ (c-MYC substrate); format: biochemical; conditions: for Cross reactivity with Cdk10 (effect of inhibitor on Cdk10): at conditions that result in full inhibition of their primary target, supplementary figure S3; for Times more potent towards Cdk9 than Cdk10: ratio of IC50 values Cdk10 vs Cdk9
T1 construct: We expressed the human full-length Cdk10/CycQ complex in Sf9 insect cells; MBP (followed by TEV site) (N, cleaved yes); made in house; host or cells: Sf9 insect cells (baculovirus); c-MYC substrate from E. coli BL21 pLysS
Procedure: Figure 3. […] (a) Chemical structures of the inhibitors tested against Cdk10/CycQ.
Kinase assays with recombinant proteins were performed in kinase assay buffer (50 mM Hepes pH7.6, 34 mM KCl, 7 mM MgCl2, 5 mM β-Glycerophosphate, 2.5 mM DTE). If not indicated otherwise, reactions contained 0.2 µM kinase, were started by the addition of ATP to 1 mM final concentration and incubated at 30°C in a shaking incubator.
For quantitative analysis, radioactive kinase assays were performed. Reactions were done in a total volume of 15 µl per sample. If not indicated otherwise, reactions contained 0.2 µM kinase, were started by addition of ATP to 1 mM containing 0.34 µCi γ[^32P] (Perkin Elmer) and incubated at 30°C in a shaking incubator. Reactions were stopped by adding EDTA to a final concentration of 50 mM. Samples were spotted onto Amersham Protran nitrocellulose membrane (GE Healthcare) filter sheets. Filters were washed three times for 5 min with PBS to remove free, non-reacted ATP. Samples were transferred to 4 ml liquid scintillation vials and immersed in 2 ml liquid scintillator (UltimaGold). Radioactivity was counted in a Beckman Liquid Scintillation Counter (Beckman-Coulter) for 1 min.
All compounds were solved at a stock concentration of 10 mM in DMSO and further pre-diluted in DMSO for dose–response measurement. For IC50 determination radioactive kinase assays were run as described above in presence of increasing concentration of inhibitor. For analysis, the data were normalized to the DMSO solvent control and the activity plotted against the inhibitor concentration. IC50 values were determined from duplicate measurements by sigmoidal curve fitting with a variable slope using GraphPadPrism, v.

[2] = target: T1, Cdk10/CycQ; experiment: as above; format: biochemical; conditions: 200 nM kinase, 1 mM ATP, 5 mM Mg2+, 50 µM c-MYC (17-167) as substrate
[3] = target: T2, Cdk9 (Homo sapiens, UniProt P50750); experiment: Radiometric kinase assay, inhibition of Cdk9 (c-MYC substrate); format: biochemical; conditions: 200 nM kinase, 1 mM ATP, 5 mM Mg2+, 50 µM c-MYC (17-167) as substrate
T2 construct: His; made in house; host or cells: Cdk9 in Sf9 insect cells; CycT1 (1-272) in E. coli

[4] = test system: Cdk10; parameters: method as in PMID 29251720; conditions: cited from earlier work
[5] = test system: Cdk10; parameters: method as in PMID 29251720; conditions: MOLT4 lysates; cited from earlier work

T1 sequence (Q15131 whole entry): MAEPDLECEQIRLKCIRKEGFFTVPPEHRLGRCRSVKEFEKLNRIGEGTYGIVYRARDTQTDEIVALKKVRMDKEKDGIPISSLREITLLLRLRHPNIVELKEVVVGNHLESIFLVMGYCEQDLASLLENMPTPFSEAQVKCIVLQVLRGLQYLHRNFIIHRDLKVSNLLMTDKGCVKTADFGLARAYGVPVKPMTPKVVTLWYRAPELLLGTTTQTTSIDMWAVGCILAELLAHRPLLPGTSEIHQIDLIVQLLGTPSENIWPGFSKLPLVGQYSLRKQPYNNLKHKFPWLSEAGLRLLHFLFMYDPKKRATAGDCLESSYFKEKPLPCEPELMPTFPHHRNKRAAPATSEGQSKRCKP
T1 sequence (Q8N1B3 whole entry partner): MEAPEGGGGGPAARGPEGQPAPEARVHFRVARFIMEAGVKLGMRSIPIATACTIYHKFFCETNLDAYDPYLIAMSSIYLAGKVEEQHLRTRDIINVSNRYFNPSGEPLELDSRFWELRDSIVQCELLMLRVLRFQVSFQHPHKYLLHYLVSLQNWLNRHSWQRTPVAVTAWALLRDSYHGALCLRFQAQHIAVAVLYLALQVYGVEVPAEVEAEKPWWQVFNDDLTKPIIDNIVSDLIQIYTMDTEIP
T2 sequence (P50750 whole entry, species assumed): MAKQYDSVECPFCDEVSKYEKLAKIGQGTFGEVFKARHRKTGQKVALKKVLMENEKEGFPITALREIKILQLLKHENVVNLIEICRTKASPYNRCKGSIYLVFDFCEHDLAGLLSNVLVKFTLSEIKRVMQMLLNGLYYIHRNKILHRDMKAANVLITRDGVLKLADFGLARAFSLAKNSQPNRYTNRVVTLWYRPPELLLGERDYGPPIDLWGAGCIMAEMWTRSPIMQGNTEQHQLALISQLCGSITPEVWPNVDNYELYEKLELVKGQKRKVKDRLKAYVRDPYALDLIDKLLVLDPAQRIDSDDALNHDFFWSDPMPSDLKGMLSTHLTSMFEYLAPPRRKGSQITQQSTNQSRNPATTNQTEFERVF
T2 sequence (O60563 1-272 partner limits assumed, species assumed): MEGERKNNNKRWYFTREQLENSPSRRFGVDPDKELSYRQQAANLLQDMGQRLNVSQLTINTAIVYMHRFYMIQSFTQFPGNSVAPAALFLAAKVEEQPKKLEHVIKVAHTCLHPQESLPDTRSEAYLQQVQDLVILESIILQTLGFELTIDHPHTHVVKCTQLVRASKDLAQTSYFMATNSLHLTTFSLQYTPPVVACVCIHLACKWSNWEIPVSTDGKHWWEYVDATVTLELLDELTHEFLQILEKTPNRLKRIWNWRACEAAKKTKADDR

| SMILES | Cross reactivity with Cdk10 (effect of inhibitor on Cdk10) [1] | Times more potent towards Cdk9 than Cdk10 [1] | other results |
| --- | --- | --- | --- |
| CN(C)C/C=C/C(=O)Nc1ccc(C(=O)Nc2cccc(Nc3ncc(Cl)c(-c4c[nH]c5ccccc45)n3)c2)cc1 [THZ-1] | did not observe any considerable effect |  |  |
| CCN1CCN(Cc2ccc(Nc3ncc(F)c(-c4cc(F)c5nc(C)n(C(C)C)c5c4)n3)nc2)CC1 [abemaciclib] | did not observe any considerable effect |  |  |
| CN1CC[C@H](c2c(O)cc(O)c3c(=O)cc(-c4ccccc4Cl)oc23)[C@H](O)C1 [flavopiridol] |  | at least 5 times |  |
| Cc1cc(O)c(-c2ccc([C@@H](C)CN(C)C)cc2)c2c1[nH]c(=O)c1sccc12 [OTS964] |  |  | IC50 [2]: 5370 nM; IC50 [3]: 138 µM |
| CC(C)(C)c1cnc(CSc2cnc(NC(=O)C3CCN(CC(=O)NCCOCCOCCOCCNc4cccc5c4C(=O)N(C4CCC(=O)NC4=O)C5=O)CC3)s2)o1 (centres unmarked) [THAL-SNS-032] |  |  | Degradation of Cdk10 [4]: degrades Cdk10 only after a longer incubation period |
| CCc1cnn2c(NCc3ccc[n+]([O-])c3)cc(N3CCCC[C@H]3CCO)nc12 [dinaciclib] |  | at least 5 times | IC50 [2]: 298 nM |
| COCC(C)NC1CCC(Nc2cc(-c3cccc(NCC4(C#N)CCOCC4)n3)c(Cl)cn2)CC1 (centres unmarked) [NVP-2] |  | at least 5 times | IC50 [2]: 1040 nM; IC50 [3]: 0.058 µM; Binding to Cdk10 [5]: identified binding to Cdk10 |
| CN(C)C/C=C/C(=O)Nc1ccc(C(=O)N2CCC[C@@H](Nc3ncc(Cl)c(-c4c[nH]c5ccccc45)n3)C2)cc1 [THZ-531] | did not observe any considerable effect |  |  |
| CC(C)(C)c1cnc(CSc2cnc(NC(=O)C3CCNCC3)s2)o1 [SNS-032] |  | at least 5 times | Binding to Cdk10 [5]: identified binding to Cdk10 |
| C=CC(=O)Nc1ccc(C(=O)Nc2[nH]nc3c2CN(C(=O)N[C@H](CN(C)C)c2ccccc2)C3(C)C)cc1 [YKL-5-124] | did not observe any considerable effect |  |  |
| CC(=O)c1c(C)c2cnc(Nc3ccc(N4CCNCC4)cn3)nc2n(C2CCCC2)c1=O [palbociclib] | did not observe any considerable effect |  |  |
